# Results from patent US10980850B2, “Use of IAP inhibitor and oncolytic virus in preparation of anti-tumor drug” (Guangzhou Virotech Pharmaceutical Co., Ltd., priority 2016, dated 2021).
# How the values were obtained:
# [1] = tested on: human colorectal cancer cell line HCT116; test: MTT survival rate of HCT116 cells (LCL161/Birinapant, M1 virus); format: cell-based; conditions: MTT 72 hours, 5 μM LCL161, MOI of M1 not stated (FIG. 2(A))
# Procedure: a) Inoculation of cells and administration treatment: cells in the exponential growth phase were selected and added into a DMEM complete culture medium (containing 10% fetal bovine serum and 1% penicillin/streptomycin (Life Technologies)) to prepare a cell suspension. The cells were inoculated into a 96-well culture plate at a density of 4×10^3/well. After 12 hours, the cells were completely adherent to the wells. The experiment was divided into a control group and a single drug group (using 5 μM LCL161 or Birinapant alone), a group infected with M1 and a group treated with LCL161/M1 or Birinapant/M1. In M1-containing assays, virus was provided at varying MOI. The concentration of LCL161 or Birinapant was 5 μM • b) Reaction of MTT with succinate dehydrogenase in the cells: 72 hours after culture, 20 μl MTT (5 mg/ml) was added into each well, and was incubated for a further 4 hours. After incubation, granular blue and purple formazan crystals formed in the living cells were observed by microscopic examination. • c) Dissolution of formazan particles: those cultures having cells with formazan crystals were further processed as follows. […] The optical density (OD value) of each well was detected in an enzyme linked detector at a wavelength of 570 nm. […] The calculated survival rate of the cells=OD value of the drug treatment group/OD value of the control group×100%. […]
# [2] = tested on: transplantable tumor of Huh7 cancer strain; test: Transplantable tumor of Huh7 in nude mice; format: in vivo, BALB/c nude mice; conditions: Huh7 tumors; LCL161 i.p. 20 mg/kg/d; M1 tail vein 5×10^5 PFU/time; four injections day 10-13
# Procedure: (§1) The present experiment was performed as a randomized and single-blinded trial. 5×10^6 HCT116 or 1×10^7 Huh7 cells were subcutaneously injected into dorsa of 4-week-aged BALB/c nude mice. When the size of tumors reached 50 mm^3, the mice were divided into groups, including an untreated control group (Control), a group treated with LCL161 alone (i.p. 20 mg/kg/d), a group infected with M1 alone (transplantable tumor of HCT116 cancer strain was injected with M1 virus via tail vein (2×10^6 PFU/time), and transplantable tumor of Huh7 cancer strain was injected with M1 virus via tail vein (5×10^5 PFU/time)) and a group treated with LCL161/M1 (LCL161 and M1 virus were administered in the same way at the same dose), and four injections was performed continuously (for HCT116, injection was conducted on day 5, day 6, day 7, and day 8; for Huh7, injection was conducted on day 10, day 11, day 12, and day 13). The weight, length and width of the tumor were measured every two days, and the volume of the tumor was calculated according to the formula: (length×width^2)/2. After measuring the volume of the tumor, one way ANOVA statistics was carried out, wherein *** indicates p<0.001, ** indicates p<0.01, and * indicates p<0.05.
# Caspase 3/7, 8, and 9 [3] = test: Caspase activity (chemiluminescence/MTT) in Huh7 cells; format: cell-based, human; conditions: M1 0.1 MOI, LCL161 5 μM, 72 hours, vs control
# Procedure: (§2) The cells in the exponential growth phase were selected and added into a DMEM complete culture medium (containing 10% fetal bovine serum and 1% penicillin/streptomycin (Life Technologies)) to prepare a cell suspension. The cells were inoculated into a 96-well culture plate at a density of 4×10^3/well. After 12 hours, the cells were completely adherent to the walls of the culture plate. In this experiment, cultures were divided into a control group, a single drug group (using LCL161 alone), a group infected with M1, and a group treated with combined LCL161/M1. The doses used were as follows: cells were infected with M1 at 1 MOI ([…]) or 0.1 MOI (Huh7 cells), and LCL161 was added at a concentration of 5 μM. Each of the above mentioned treatment groups was divided in four for detecting MTT and the activities of Caspase 3/7, 8 and 9. 72 hours after treatment, the reagent for detecting Caspase3/7, 8 and 9 was added into each well on the basis of the volume, and the resulting wells were placed into the incubator for a further half hour. The liquid was absorbed into the opaque 96 well plate for measuring the chemical luminous intensity by a microplate reader. Meanwhile, MTT was detected to calculate the survival rate of the cells. The activity of Caspase was standardized by the ratio of chemiluminescent value to MTT value.
# Caspase 3/7, 8, and 9 [4] = test: Caspase activity (chemiluminescence/MTT) in HCT116 cells; format: cell-based, human; conditions: M1 1 MOI, LCL161 5 μM, 72 hours, vs control
# Procedure: as §2
# [5] = tested on: transplantable tumor of HCT116 cancer strain; test: Transplantable tumor of HCT116 in nude mice; format: in vivo, BALB/c nude mice; conditions: HCT116 tumors
# Procedure: as §1
# pancreatic cancer = conditions: 10 μmol/L alone; cells without drugs 17%; cited from earlier work
Structure (SMILES),survival rate [1],reduction in tumor volume as compared with the control group [2],"activities of Caspase 3/7, 8, and 9 (Caspase 3/7, 8, and 9 [3])","activities of Caspase 3/7, 8, and 9 (Caspase 3/7, 8, and 9 [4])","reduction in tumor volume as compared with the control group ([5]; LCL161 i.p. 20 mg/kg/d, M1 tail vein 2×10^6 PFU/time, four injections day 5-8)","tumor volume (in words) ([5]; same dosing, vs control group)",apoptosis rate (pancreatic cancer)
CN[C@@H](C)C(=O)N[C@H](C(=O)N1CCC[C@H]1c1nc(C(=O)c2ccc(F)cc2)cs1)C1CCCCC1 [LCL161],92.6%,18.1%,only slightly up-regulated,only slightly up-regulated,29.15%,only a slight reduction in tumor volume,
Nc1ccn([C@@H]2O[C@H](CO)[C@@H](O)C2(F)F)c(=O)n1 [Gemcitabine],,,,,,,58%
